# Laboratory results reported in ChEMBL document CHEMBL4699661, “Synthesis and Biological Characterization of Cyclic Disulfide-Containing Peptide Analogs of the Multifunctional Opioid/Neuropeptide FF Receptor Agonists That Produce Long-Lasting and Nontolerant Antinociception” (J Med Chem, 2020).
# Activity calls are given as the source filed them. The rule behind the calls is not given here. Non-standard residues stand in square brackets, D forms with d. Residues, ends and D or L forms follow the SMILES beside them.
# Experiments:
# Mus musculus [1] = assay: Analgesic activity in icv dosed Kunming mouse by radiant heat tail flick test; type: functional
# [2] = biological target: T1, Neuropeptide FF receptor 2 (Homo sapiens, UniProt Q9Y5X5); assay: Agonist activity at NPFFR2 (unknown origin) expressed in HEK293-A cells assessed as inhibition of forskolin-stimulated cAMP accumulation incubated for 30 mins by competition PKA binding assay; type: functional, cell-based
# Mus musculus [3] = assay: Analgesic activity in Kunming mouse assessed as increase in antinociceptive effect at 0.03 pmol, icv pre-treated with 10 nmol, icv NPFF receptor antagonist RF9 by radiant heat tail flick test; type: functional, organism-based
# [4] = biological target: T1, Neuropeptide FF receptor 2; assay: Agonist activity at NPFFR2 (unknown origin) expressed in HEK293-A cells assessed as inhibition of forskolin-stimulated cAMP accumulation incubated for 30 mins by competition PKA binding assay relative to control; type: functional, cell-based; conditions: filed as agonist
# Mus musculus [5] = assay: Analgesic activity in icv dosed Kunming mouse dosed once daily for 8 consecutive days by radiant heat tail flick test; type: functional, organism-based; conditions: time 8.0 day
# [6] = Half life in 15% mouse brain at 0.01 mM by RP-HPLC analysis; type: ADME, tissue-based
# Mus musculus [7] = assay: Analgesic activity in sc dosed Kunming mouse by radiant heat tail flick test; type: functional
# [8] = biological target: T2, Neuropeptide FF receptor 1 (Homo sapiens, UniProt Q9GZQ6); assay: Agonist activity at NPFFR1 (unknown origin) expressed in HEK293-A cells assessed as inhibition of forskolin-stimulated cAMP accumulation incubated for 30 mins by competition PKA binding assay relative to control; type: functional, cell-based; conditions: filed as agonist
# [9] = biological target: T2, Neuropeptide FF receptor 1; assay: Agonist activity at NPFFR1 (unknown origin) expressed in HEK293-A cells assessed as inhibition of forskolin-stimulated cAMP accumulation incubated for 30 mins by competition PKA binding assay; type: functional, cell-based
# [10] = biological target: T3, Delta-type opioid receptor (Homo sapiens, UniProt P41143); assay: Agonist activity at delta opioid receptor (unknown origin) expressed in HEK293-A cells assessed as inhibition of forskolin-stimulated cAMP accumulation incubated for 30 mins by competition PKA binding assay relative to control; type: functional, cell-based; conditions: filed as agonist
# Mu-type opioid receptor = Mu-type opioid receptor (Homo sapiens, UniProt P35372); assay: Agonist activity at mu opioid receptor (unknown origin) expressed in HEK293-A cells assessed as inhibition of forskolin-stimulated cAMP accumulation incubated for 30 mins by competition PKA binding assay; type: functional, cell-based
# [11] = Half life in 100% mouse plasma at 0.01 mM by RP-HPLC analysis; type: ADME, cell-free
# [12] = biological target: T3, Delta-type opioid receptor; assay: Agonist activity at delta opioid receptor (unknown origin) expressed in HEK293-A cells assessed as inhibition of forskolin-stimulated cAMP accumulation incubated for 30 mins by competition PKA binding assay; type: functional, cell-based
# Mus musculus [13] = assay: Analgesic activity in sc dosed Kunming mouse assessed as time duration during which antinociception lasted by radiant heat tail flick test; type: functional
# [14] = biological target: Kappa-type opioid receptor (Homo sapiens, UniProt P41145); assay: Agonist activity at kappa opioid receptor (unknown origin) expressed in HEK293-A cells assessed as inhibition of forskolin-stimulated cAMP accumulation incubated for 30 mins by competition PKA binding assay; type: functional, cell-based; conditions: read-out: EC50
# Mus musculus [15] = assay: Analgesic activity in sc dosed Kunming mouse dosed once daily for 8 consecutive days by radiant heat tail flick test; type: functional, organism-based; conditions: time 8.0 day
# [16] = Ratio of drug level in brain to plasma in mouse; type: ADME; conditions: read-out: BPR
# [17] = Safety index, ratio of ED50 for induction of constipation in sc dosed Kunming mouse to ED50 for analgesic activity in sc dosed Kunming mouse; type: organism-based; conditions: in vivo, read-out: Ratio ED50
# [18] = Toxicity in Kunming mouse assessed as effect on motor coordination at 30 pmol, icv by rotarod test; conditions: in vivo, icv_or_intrathecal
# [19] = Toxicity in Kunming mouse assessed as activation of reward circuits at 0.09 umol/kg, sc by CPP test; type: organism-based; conditions: in vivo, dose 0.09 µmol/kg
# [20] = Toxicity in Kunming mouse assessed as increase in jumping counts after naloxone-injection at 0.09 umol/kg, sc by naloxone-precipitated withdrawal test; type: organism-based; conditions: in vivo, dose 0.09 µmol/kg
# [21] = Toxicity in Kunming mouse assessed as effect on motor coordination at 0.09 umol/kg, sc by rotarod test; type: organism-based; conditions: in vivo, dose 0.09 µmol/kg
# [22] = Induction of constipation in sc dosed Kunming mouse assessed as inhibition of gastrointestinal motility by charcoal based gastrointestinal motility test; type: organism-based; conditions: in vivo
# Mus musculus [23] = assay: Analgesic activity in icv dosed Kunming mouse assessed as time duration during which supraspinal antinociception lasted by radiant heat tail flick test; type: functional
# Mus musculus [24] = assay: Analgesic activity in Kunming mouse at 30 pmol, icv by radiant heat tail flick test; type: functional
# Mus musculus [25] = assay: Analgesic activity in Kunming mouse at 0.09 umol/kg, sc by radiant heat tail flick test; type: functional; conditions: dose 0.09 µmol/kg
# [26] = Toxicity in Kunming mouse assessed as increase in total travelled distance at 0.09 umol/kg, sc by open field assay; type: organism-based; conditions: in vivo, dose 0.09 µmol/kg
# Mus musculus [27] = assay: Analgesic activity in Kunming mouse at 2.68 umol/kg, sc pre-treated with 5 nmol, icv peripherally restricted opioid receptor antagonist naloxone methiodide by radiant heat tail flick test; type: functional, organism-based; conditions: dose 2.68 µmol/kg
# Mus musculus [28] = assay: Analgesic activity in Kunming mouse at 8.94 umol/kg, sc pre-treated with 5 nmol, icv peripherally restricted opioid receptor antagonist naloxone methiodide by radiant heat tail flick test; type: functional, organism-based; conditions: dose 8.94 µmol/kg
# Mus musculus [29] = assay: Analgesic activity in NPFF2 -/- C57BL/6 mouse at 0.09 umol/kg, sc by radiant heat tail flick test relative to wild type mouse; type: functional, organism-based; conditions: dose 0.09 µmol/kg
# Mus musculus [30] = assay: Analgesic activity in Kunming mouse at 8.94 umol/kg, sc pre-treated with 1 mg/kg, sc peripherally restricted opioid receptor antagonist naloxone methiodide by radiant heat tail flick test; type: functional, organism-based; conditions: dose 8.94 µmol/kg
# Mus musculus [31] = assay: Analgesic activity in Kunming mouse at 2.68 umol/kg, sc pre-treated with 1 mg/kg, sc opioid receptor antagonist naloxone by radiant heat tail flick test; type: functional, organism-based; conditions: dose 2.68 µmol/kg
# Mus musculus [32] = assay: Analgesic activity in Kunming mouse at 8.94 umol/kg, sc pre-treated with 1 mg/kg, sc opioid receptor antagonist naloxone by radiant heat tail flick test; type: functional, organism-based; conditions: dose 8.94 µmol/kg
# Mus musculus [33] = assay: Analgesic activity in Kunming mouse at 2.68 umol/kg, sc pre-treated with 1 mg/kg, sc peripherally restricted opioid receptor antagonist naloxone methiodide by radiant heat tail flick test; type: functional, organism-based; conditions: dose 2.68 µmol/kg
# Mus musculus [34] = assay: Analgesic activity in NPFF2 -/- C57BL/6 mouse at 0.89 umol/kg, sc by radiant heat tail flick test relative to wild type mouse; type: functional, organism-based; conditions: dose 0.89 µmol/kg
Compound,ED50 (Mus musculus [1]) [pmol],EC50 [2] [nM],Activity (Mus musculus [3]),Emax [4] [%],Activity (Mus musculus [5]),half-life at 10 µM [6] [min],ED50 (Mus musculus [7]) [µmol/kg],Emax [8] [%],EC50 [9] [nM],Emax [10] [%],EC50 (Mu-type opioid receptor) [nM],half-life at 10 µM [11] [min],EC50 [12] [nM],Time (Mus musculus [13]) [h],EC50 [14] [nM],Activity (Mus musculus [15]),Time (Mus musculus [23]) [h],also measured
N=C(N)NCCC[C@H](NC(=O)[C@H](CCC(N)=O)NC(=O)[C@@H]1CCCN1C(=O)[C@@H]1CSSC[C@H](NC(=O)[C@@H](N)Cc2ccc(O)cc2)C(=O)NCC(=O)N[C@@H](Cc2ccccc2)C(=O)N1)C(=O)N[C@@H](Cc1ccccc1)C(N)=O,182,120,Active,79.6,Active,58,0.18,80.2,32.5,63.6,788,28.9,162,1.5,307,Active,,
CN1CC[C@]23c4c5ccc(O)c4O[C@H]2[C@@H](O[C@@H]2O[C@H](C(=O)O)[C@@H](O)[C@H](O)[C@H]2O)C=C[C@H]3[C@H]1C5 [MORPHINE GLUCURONIDE],,,,,,,,,,,,,,,,,,Kp [16]: 0.05
N=C(N)NCCC[C@H](NC(=O)[C@H](CCC(N)=O)NC(=O)[C@@H]1CCCN1C(=O)[C@H]1CSSC[C@@H](NC(=O)[C@@H](N)Cc2ccc(O)cc2)C(=O)NCC(=O)N[C@@H](Cc2ccccc2)C(=O)N1)C(=O)N[C@@H](Cc1ccccc1)C(N)=O,0.001,192,Active,74.6,Active,255,0.002,75.6,361,63.6,196,14.6,200,4,2460,Active,3,selectivity ratio [17]: 35; Activity (Mus musculus [7]): Dose-dependent effect; Activity [18]: Non-Toxic; Activity [19]: Toxic; Activity [20]: Non-Toxic; Activity [21]: Non-Toxic; Activity [22]: Dose-dependent effect; ED50 [22]: 0.07 µmol/kg; Activity (Mus musculus [23]): Dose-dependent effect; MPE (Mus musculus [24]): 90%; Activity (Mus musculus [25]): 80%; Activity [26]: Non-Toxic
C[C@@H](NC(=O)[C@@H](N)Cc1ccc(O)cc1)C(=O)NCC(=O)N[C@@H](Cc1ccccc1)C(=O)N[C@@H](CCC(N)=O)C(=O)N1CCC[C@H]1C(=O)N[C@@H](CCC(N)=O)C(=O)N[C@@H](CCCNC(=N)N)C(=O)N[C@@H](Cc1ccccc1)C(N)=O (H-Y[dA]GFQPQRF-NH2),390,,Active,,,,1.37,,,,,,,,,Active,,
N=C(N)NCCC[C@H](NC(=O)[C@H](CCC(N)=O)NC(=O)[C@@H]1CCCN1C(=O)[C@H](CS)NC(=O)[C@H](Cc1ccccc1)NC(=O)CNC(=O)[C@@H](CS)NC(=O)[C@@H](N)Cc1ccc(O)cc1)C(=O)N[C@@H](Cc1ccccc1)C(N)=O,0.6,532,Active,46.6,,,0.13,78.5,17.5,46.1,221,27.9,514,3,581,Active,3,Activity (Mus musculus [27]): Active; Activity (Mus musculus [28]): Active; Activity (Mus musculus [29]): Active; Activity (Mus musculus [30]): inactive; Activity (Mus musculus [31]): inactive; Activity (Mus musculus [32]): inactive; Activity (Mus musculus [33]): inactive; Activity (Mus musculus [34]): Active
